Test results as given in the supplement of paper PMC10307832.

Assays:
Assay in all cases: relative viability (nuclei count vs DMSO), 5 days (fraction); higher = more cells survive
BI-2536 + Luminespib = compound: CC[C@@H]1C(=O)N(C)c2cnc(Nc3ccc(C(=O)NC4CCN(C)CC4)cc3OC)nc2N1C1CCCC1 [BI-2536] + CCNC(=O)c1noc(-c2cc(C(C)C)c(O)cc2O)c1-c1ccc(CN2CCOCC2)cc1 [Luminespib] (partner 0.01 µM)
Summary of the method: (§1)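 Relative viability equals treated-well nuclei counts divided by vehicle-well nuclei counts. Counts came from 4× images of lung cancer cell lines grown in 1536-well plates for 5 days after pin-tool dosing on the day after seeding. Dosing used one drug alone or a fixed anchor-drug dose plus five library-drug doses (not always all listed) in √10 steps, and values are medians of duplicate plates.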

BI-2536 + Foretinib = compound: CC[C@@H]1C(=O)N(C)c2cnc(Nc3ccc(C(=O)NC4CCN(C)CC4)cc3OC)nc2N1C1CCCC1 [BI-2536] + COc1cc2c(Oc3ccc(NC(=O)C4(C(=O)Nc5ccc(F)cc5)CC4)cc3F)ccnc2cc1OCCCN1CCOCC1 [Foretinib] (partner 0.25 µM)
Summary of the method: as §1

BI-2536 + Pictilisib = compound: CC[C@@H]1C(=O)N(C)c2cnc(Nc3ccc(C(=O)NC4CCN(C)CC4)cc3OC)nc2N1C1CCCC1 [BI-2536] + CS(=O)(=O)N1CCN(Cc2cc3nc(-c4cccc5[nH]ncc45)nc(N4CCOCC4)c3s2)CC1 [Pictilisib] (partner 1 µM)
Summary of the method: as §1

BI-2536 + Linsitinib = compound: CC[C@@H]1C(=O)N(C)c2cnc(Nc3ccc(C(=O)NC4CCN(C)CC4)cc3OC)nc2N1C1CCCC1 [BI-2536] + C[C@]1(O)C[C@@H](c2nc(-c3ccc4ccc(-c5ccccc5)nc4c3)c3c(N)nccn32)C1 [Linsitinib] (partner 1 µM)
Summary of the method: as §1

UMC-11
relative viability (BI-2536 + Luminespib; first compound 0.01 µM): 0.925 | relative viability (BI-2536 + Luminespib; first compound 0.03162 µM): 0.725 | relative viability (BI-2536 + Luminespib; first compound 0.1 µM): 0.232 | relative viability (BI-2536 + Luminespib; first compound 0.3162 µM): 0.188 | relative viability (BI-2536 + Luminespib; first compound 1 µM): 0.168 | relative viability (BI-2536 + Foretinib; first compound 0.01 µM): 0.927 | relative viability (BI-2536 + Foretinib; first compound 0.03162 µM): 0.661 | relative viability (BI-2536 + Foretinib; first compound 0.1 µM): 0.174 | relative viability (BI-2536 + Foretinib; first compound 0.3162 µM): 0.19 | relative viability (BI-2536 + Foretinib; first compound 1 µM): 0.191 | relative viability (BI-2536 + Pictilisib; first compound 0.01 µM): 0.851 | relative viability (BI-2536 + Pictilisib; first compound 0.03162 µM): 0.647 | relative viability (BI-2536 + Pictilisib; first compound 0.1 µM): 0.11 | relative viability (BI-2536 + Pictilisib; first compound 0.3162 µM): 0.153 | relative viability (BI-2536 + Pictilisib; first compound 1 µM): 0.14 | relative viability (BI-2536 + Linsitinib; first compound 0.01 µM): 1.02 | relative viability (BI-2536 + Linsitinib; first compound 0.03162 µM): 0.967 | relative viability (BI-2536 + Linsitinib; first compound 0.1 µM): 0.841 | relative viability (BI-2536 + Linsitinib; first compound 0.3162 µM): 0.207 | relative viability (BI-2536 + Linsitinib; first compound 1 µM): 0.172
